Experimental data taken from patent publication US8859628B2, “Method for preventing, treating and diagnosing disorders of protein aggregation” (priority 2003, dated 2014).
Entries after “also recorded” stand apart in the source; their conditions may differ.

Tests used:
TgCRND8 mice [1] = test: Morris Water Maze, spatial reference memory version, three-day trial paradigm (treatment/reversal study); assay type: in vivo, mouse; conditions: for cognitive function, treated TgCRND8 mice vs non-Tg littermates (words): 1 month treatment from 5 months of age, three-day paradigm
Protocol: A cohort entered the study at 5 months of age and outcomes were analyzed at 6-months of age. The body weight, coat characteristics and in cage behavior was monitored. All experiments were performed according to the Canadian Council on Animal Care guidelines.
(§1) Behavioral Test—Reversal Study—Mice entered the Morris water maze test with a hidden platform on day one without pretraining. Mice were tested for 3 days with six trials per day. On the fourth day, the platform was removed from the pool and each mouse received one 30-s swim probe trial. On the last day the animals underwent a cue test in order to evaluate swimming ability, eye sight and general cognition. The cue test is composed at the platform being placed in a different quadrant than that used for testing and is tagged with a flag. Animals are allowed 60 s to find the platform. […] Behavioural data was analysed using a mixed model of factorial analysis of variance (ANOVA) with drug or genotype and training sessions as repeated measure factors.
The cognitive function of TgCRND8 mice was assessed using the spatial reference memory version of the Morris Water Maze using a three day trial paradigm (FIGS. 4-8).
Behavioural data was analysed using a mixed model of factorial analysis of variance (ANOVA) with drug and genotype as between subject variables and training sessions as within subject variable.
(§2) In these experiments, the dosage and oral administration of compounds, and the behavioral and neurochemical assays were the same as those employed in the above treatment experiments.

TgCRND8 mice [2] = test: Cerebral Aβ content (Aβ40 and Aβ42 kits on hemi-brain homogenates); assay type: in vivo, mouse; parameters: Total Aβ: unit not given here
Protocol: (§3) Plasma and Cerebral Aβ Content—Hemi-brain samples were homogenized in a buffered sucrose solution, followed by either 0.4% diethylamine/100 mM NaCl for soluble Aβ levels or cold formic acid for the isolation of total Aβ. After neutralization the samples were diluted and analyzed for Aβ40 and Aβ42 using commercially available kits (BIOSOURCE International). Each hemisphere was analyzed in triplicate with the mean±SEM reported. Western blot analyses were performed on all fractions using urea gels for Aβ species analyses. Aβ was detected using 6E10 (BIOSOURCE International) and Enhanced Chemiluminenscence (Amersham).
as §3, with “reported.” for “reported. Western blot analyses were performed on all fractions using urea gels for Aβ species analyses. Aβ was detected using 6E10 (BIOSOURCE International) and Enhanced Chemiluminenscence (Amersham).”

TgCRND8 mice [3] = test: Plasma Aβ levels; assay type: in vivo, mouse
Protocol: as §3
as §3, with “reported.” for “reported. Western blot analyses were performed on all fractions using urea gels for Aβ species analyses. Aβ was detected using 6E10 (BIOSOURCE International) and Enhanced Chemiluminenscence (Amersham).”

TgCRND8 mice [4] = conditions: mouse, in vivo
From the text: Animals were sacrificed after one month of treatment and analysed for pathological outcomes.
as §2

TgCRND8 mice [5] = test: Gliosis quantitation (GFAP astrocytes, CD68 microglia); assay type: in vivo, mouse; conditions: prevention
From the text: Gliosis Quantitation—Five randomly selected, evenly spaced, sagittal sections were collected from paraformaldehyde-fixed and frozen hemispheres of treated and control mice. Sections were immunolabelled for astrocytes with anti-rat GFAP IgG2a (Dako; diluted 1:50) and for microglia with anti-rat CD68 IgG2b (Dako; 1:50).
Serial sagittal sections were stained with the astrocytic marker glial fibrillary acidic protein (GFAP) and quantitated for percent brain area covered by astrogliosis.

TgCRND8 mice [6] = test: Morris Water Maze, spatial reference memory version, five-day trial paradigm (prevention study); assay type: in vivo, mouse; conditions: 6 months of age
Protocol: Age and sex-matched cohorts of TgCRND8 mice and non-transgenic littermates (n=35 in each cohort) were either untreated, or were given a compound of the present invention as indicated below at 30 mg/day/mouse beginning at age of about 6 weeks. The mice were followed for outcome measures cognitive function, brain Aβ levels, brain pathology, and survival at 4 months and 6 months of age.
Two cohorts entered the study at 6 weeks of age and outcomes were analyzed at 4- and 6-months of age. The body weight, coat characteristics and in cage behavior was monitored. All experiments were performed according to the Canadian Council on Animal Care guidelines.
(§4) Behavioral tests—After non-spatial pre-training, mice underwent place discrimination training for 5 days with 4 trials per day. Behavioral data was analyzed using a mixed model of factorial analysis of variance (ANOVA) with drug or genotype and training sessions as repeated measure factors.
The cognitive function of TgCRND8 mice was assessed using the spatial reference memory version of the Morris Water Maze using a five-day trial paradigm (FIGS. 1C-1H). […] The improved performance was also not due to nutritional or caloric effects because body weight, activity, and coat condition were not different between treated and untreated cohorts. […] Gender effects were not significant between any treatment group (p=0.85).

TgCRND8 mice [7] = test: Cerebral amyloid plaque burden (anti-Aβ immunostaining, image analysis); assay type: in vivo, mouse; conditions: for amyloid/plaque burden vs untreated (words) / mean plaque size: prevention
Protocol: (§5) Cerebral amyloid burden—Brains were removed and one hemisphere was fixed in 4% paraformaldehyde and embedded in paraffin wax in the mid saggital plane. To generate sets of systematic uniform random sections, 5 μm serial sections were collected across the entire hemisphere. Sets of sections at […] intervals were used for analyses (10-14 sections/set). Plaque were identified after antigen retrieval with formic acid, and incubated with primary anti-Aβ antibody (Dako M-0872), followed by secondary antibody (Dako StreptABCcomplex/horseradish kit). End products were visualized with DAB counter-stained with hematoxylin. Amyloid plaque burden was assessed using Leco IA-3001 image analysis software interfaced with Leica microscope and Hitachi KP-M1U CCD video camera. Vascular burden was analyzed similarly and a dissector was used to measure the diameter of affected vessels.
as §5, with “camera.” for “camera. Vascular burden was analyzed similarly and a dissector was used to measure the diameter of affected vessels.”

TgCRND8 mice [8] = test: Vascular amyloid burden; assay type: in vivo, mouse; conditions: prevention, 6 months of age
Protocol: as §5
Alzheimer's disease is characterized by the presence of both parenchymal and vascular amyloid deposits. In untreated 6 month old TgCRND8 mice approximately 0.03% of the brain area is associated with vascular amyloid.

non-Tg littermates = test: Morris Water Maze performance of treated non-Tg littermates; assay type: in vivo, mouse; conditions: treated vs untreated non-Tg
Protocol: as §4, §1

Aβ42 = biological target: T1, Aβ42 (Homo sapiens, UniProt P05067); conditions: cited from earlier work
T1 construct: The importance of residues 1-42 (Aβ42) in Alzheimer's disease was highlighted
T1 sequence (P05067 672-713 limits assumed): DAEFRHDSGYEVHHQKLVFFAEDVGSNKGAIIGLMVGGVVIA

amyloid-beta peptide = conditions: cited from earlier work
TgCRND8 mice [9] = test: Survival census (Kaplan-Meier); assay type: in vivo, mouse; conditions: vs untreated TgCRND8
Protocol: Survival Census—The probability of survival was assessed by the Kaplan-Meier technique, computing the probability of survival at every occurrence of death, thus making it suitable for small sample sizes. For the analyses of survival, 35 mice were used for each treatment group. The comparison between treatments was reported using the Tarone-Ware test.

[10] = 28 days treatment from 5 months of age
[11] = 1 month treatment from 5 months of age
[12] = 1 month treatment, 30 mg/mouse/day from 5 months, analyzed at 6 months of age
[13] = 4 month prevention, 30 mg/mouse/day from 6 weeks of age
[14] = 6 month prevention, 30 mg/mouse/day from 6 weeks of age

Structure (SMILES): OC1C(O)C(O)C(O)C(O)C1O (stereo not drawn) [Allo-inositol, allo-inositol]
- cognitive function, treated TgCRND8 mice vs non-Tg littermates (words) (TgCRND8 mice [1]; listed as allo-inositol): still significantly different from that of their non-transgenic littermates
- cognitive function, treated vs untreated TgCRND8 mice (words) (TgCRND8 mice [1]; [10]): performed significantly better than untreated TgCRND8 mice
- effect on insoluble Aβ42 or Aβ40 (soluble and insoluble pools) (TgCRND8 mice [2]; [10]): did not significantly alter
- reduction of soluble Aβ42 (TgCRND8 mice [2]; [10]): 20%
- Brain Aβ42 Insoluble (TgCRND8 mice [2]; allo-inositol study: 1 month treatment (28 days) from 5 months of age, mean ± sem): 16336 ± 910 ng/gm wet brain
- effect on plasma Aβ levels in comparison to untreated (words) (TgCRND8 mice [3]; 1 month treatment from 5 months of age, listed as allo-inositol): indistinguishable from untreated TgCRND8 plasma levels
- Plasma Aβ Levels (TgCRND8 mice [3]; allo-inositol study: 1 month treatment (28 days) from 5 months of age): 2458 ± 95 pg/mL
- effects on blood chemistry or organ function (TgCRND8 mice [4]): do not exhibit obvious deleterious effects on blood chemistry or organ function
- ALP (TgCRND8 mice [4]; po): 95 ± 16 U/L
- ALT (TgCRND8 mice [4]; po): 44 ± 4 U/L
- Albumin (TgCRND8 mice [4]; po): 32 ± 2 g/L
- Bilirubin (TgCRND8 mice [4]; po): 2.9 ± 3 µmol/L
- Creatinine (TgCRND8 mice [4]; po): 69 ± 64 µmol/L
- Globulin (TgCRND8 mice [4]; po): 17 ± 3 g/L
- Glucose (TgCRND8 mice [4]; po): 10 ± 3 mmol/L
- Icteria (TgCRND8 mice [4]; po): Normal
- Lipemia (TgCRND8 mice [4]; po): Normal
- Total protein (TgCRND8 mice [4]; po): 48 ± 2 g/L
- Urea (TgCRND8 mice [4]; po): 18.6 ± 13 mmol/L

Structure (SMILES): OC1C(O)C(O)C(O)C(O)C1O (stereo not drawn) [Epi-Inositol, epi-inositol]
- astrogliosis/gliosis vs untreated (TgCRND8 mice [5]; 6 months of age): decrease in astrogliosis
- astrogliosis, percent brain area covered (GFAP) (TgCRND8 mice [5]; 6-months of age): 0.388±0.039%
- microglial activation, % brain area (TgCRND8 mice [5]; 6 months): 0.248±0.02%
- cognitive function, treated vs untreated TgCRND8 mice (words) (TgCRND8 mice [6]): performed significantly better than untreated TgCRND8 mice
- cognitive function, treated TgCRND8 mice vs non-Tg littermates (words) (TgCRND8 mice [1]; listed as epi-inositol): almost significantly different
- Aβ load vs untreated (TgCRND8 mice [2]; [11]): Aβ load was significantly decreased
- Total Aβ (TgCRND8 mice [2]; [12]): 17271 ± 415
- Total Aβ (TgCRND8 mice [2]; [13]): 4802 ± 176
- Total Aβ (TgCRND8 mice [2]; [14]): 18464 ± 229
- brain Aβ levels compared with untreated (TgCRND8 mice [2]; prevention, 6 months of age): rose to levels similar to those observed in untreated TgCRND8 mice
- plaque burden vs untreated (TgCRND8 mice [7]; [11]): not a significant decrease in the mean plaque size
- Plaque Area (TgCRND8 mice [7]; [12]): 459706 ± 49966 μm^2
- Plaque Count (TgCRND8 mice [7]; [12]): 1342 ± 114
- Total Plaque Area/Total Brain Area (TgCRND8 mice [7]; [12]): 0.134 ± 0.017%
- Plaque Area (TgCRND8 mice [7]; [13]): 65042 ± 5199 μm^2
- Plaque Count (TgCRND8 mice [7]; [13]): 678 ± 64
- Total Plaque Area/Total Brain Area (TgCRND8 mice [7]; [13]): 0.020 ± 0.001%
- Plaque Area (TgCRND8 mice [7]; [14]): 380456 ± 13498 μm^2
- Plaque Count (TgCRND8 mice [7]; [14]): 979 ± 32
- Total Plaque Area/Total Brain Area (TgCRND8 mice [7]; [14]): 0.096 ± 0.04%
- amyloid/plaque burden vs untreated (words) (TgCRND8 mice [7]; 6 months of age): modest effect on amyloid burden
- mean plaque size (TgCRND8 mice [7]; 4 months of age): 95±4.3 μm^2
- mean plaque size (TgCRND8 mice [7]; 6 months of age): 370±9 μm^2
- vascular amyloid burden vs untreated (words) (TgCRND8 mice [8]): No difference could be detected in the vascular amyloid burden
- Plasma Aβ Levels (TgCRND8 mice [3]; 1 month treatment): 2158 ± 157 pg/mL
- effect on plasma Aβ levels in comparison to untreated (words) (TgCRND8 mice [3]; 1 month treatment from 5 months of age, listed as epi-inositol): Neither myo-inositol, epi-inositol nor scyllo-inositol treatment had any effect on plasma Aβ levels
- Plasma Aβ Levels (TgCRND8 mice [3]; 4 month prevention): 1082 ± 164 pg/mL
- Plasma Aβ Levels (TgCRND8 mice [3]; 6 month prevention): 952 ± 56 pg/mL
- effect on plasma Aβ levels in comparison to untreated (words) (TgCRND8 mice [3]; prevention, 4- and 6-months of age): Neither epi-inositol nor scyllo-inositol treatment had any effect on plasma Aβ levels
- effect on performance of non-Tg mice (non-Tg littermates): had no effect on the performance of non-Tg mice; also recorded: not effected

Structure (SMILES): OC1C(O)C(O)C(O)C(O)C1O (stereo not drawn) [chiro-inositol]
- structural transition from random to β-structure in Aβ42 (Aβ42): epi- and scyllo- but not chiro-inositol were able to induce a structural transition

Structure (SMILES): O=P(O)(O)O[C@@H]1[C@H](O)[C@H](O)[C@@H](OP(=O)(O)O)[C@H](OP(=O)(O)O)[C@H]1O [inositol-1,4,5-triphosphate]
- ability to inhibit amyloid-beta peptide fibrillogenesis (amyloid-beta peptide): found not to be effective

Structure (SMILES): O=P(O)(O)O[C@H]1[C@H](O)[C@@H](O)[C@H](OP(=O)(O)O)[C@@H](O)[C@H]1O [inositol-1,4-bisphosphate]
- ability to inhibit amyloid-beta peptide fibrillogenesis (amyloid-beta peptide): found not to be effective

Structure (SMILES): O=P(O)(O)O[C@@H]1[C@@H](O)[C@H](O)[C@@H](O)[C@H](O)[C@@H]1O [inositol-monophosphate]
- ability to inhibit amyloid-beta peptide fibrillogenesis (amyloid-beta peptide): found not to be effective

Structure (SMILES): OC[C@@H](O)[C@@H](O)[C@H](O)[C@H](O)CO [mannitol, reference compound]
- cognitive function, treated TgCRND8 mice vs non-Tg littermates (words) (TgCRND8 mice [6]): significantly different from mannitol treated non-Tg littermates
- cognitive function, treated vs untreated TgCRND8 mice (words) (TgCRND8 mice [6]): had no effect on behavior; also recorded: indistinguishable from untreated TgCRND8 mice
- cognitive function, treated vs untreated TgCRND8 mice (words) (TgCRND8 mice [6]; listed as Mannitol): not significantly different from untreated TgCRND8 mice
- effect on survival of TgCRND8 mice (TgCRND8 mice [9]): had no effect on the survival of TgCRND8 mice; also recorded: not significantly different
- amyloid/plaque burden vs untreated (words) (TgCRND8 mice [7]; 6 months of age): did not alter the plaque load in TgCRND8 mice
- amyloid/plaque burden vs untreated (words) (TgCRND8 mice [7]; 6 months of age, listed as Mannitol): indistinguishable from untreated TgCRND8 mice when plaque count was used as a measure of total plaque burden
- effect on performance of non-Tg mice (non-Tg littermates): had no effect on the behaviour of non-Tg mice
